Laboratory results: US7087227B2, “Cartilage composites and methods of use” (Barnes-Jewish Hospital, priority 1997, dated 2006)

Legend:
Type in all cases: cell-based, human
[1] = system: matrix metalloproteinases (MMPs); experiment: Zymogram and Western analysis of chondrocyte-derived metalloproteinases in spent media; conditions: substrate gels
Protocol: FIG. 10, in two parts, FIGS. 10A and 10B, represent SDS-substrate gel (zymogram) analysis of cytokine-mediated production of matrix metalloproteinases (MMPs) in fetal articular chondrocytes (neocartilage disks). Negative staining indicates the molecular weight (MW) in kDa of the active proteases. • Spent media were collected 72 h post stimulation with the indicated cytokine (5 ng/ml) and concentrated 16-fold by dialysis/lyophilization. • Unreduced samples were separated on 10% SDS substrate gels containing either gelatin (FIG. 10A) or casein (FIG. 10B) 0.1%. • MMPs were renatured following SDS removal by extensive washing in 2.5% Triton X-100 and lytic bands visualized via negative staining with Coomassie blue, following incubation in a calcium and zinc containing buffer for 4 hr at 37° C. • Latent enzyme activity is shown in lanes 1–4, while the corresponding active enzymes were prepared by preincubation with 1 mM 4-aminophenyl mercuric acetate (APMA lanes 5–8).
Conditioned media were thawed and identification of chondrocyte-derived metalloproteinases assessed by zymogen substrate gel electrophoresis, as well as Western analysis following SDS-PAGE. Further studies examined the effect of activating agents on synthesis of S-GAG and collagen via radiolabeled incorporation.

neocartilage [2] = experiment: Cytokine-induced resorption of neocartilage (matrix content, gross and histological appearance)
Protocol: It is seen that chronic IL-1 stimulation alters cartilage staining for proteoglycan and collagen. • Day 60 neocartilages were treated with 1 ng/ml rhIL-1β for 30 days. Fresh media and cytokine were added every 48 hours. • Neocartilages were harvested (day 90) and stained with safranin-O and pentachrome as before. […] Magnification×100.
Neocartilage cultures were established in 24 or 48 well plastic dishes (Corning) as described above (Example 1) and grown to day 30. The hyaline cartilage matrix was then stimulated to undergo autolytic degradation following 30 day activation with increasing concentrations of a variety of cytokine and/or inflammatory agents, including IL-1, Il-6, IL-17, TNF-α, LPS, and phorbol ester. Culture media were collected every 48 hours and subsequently changed by the addition of fresh media±inflammatory stimuli.
Cultures were terminated and the biochemical composition of the neocartilage matrix that remained was analyzed as described previously. Parallel samples were processed for light and transmission electron microscopy for histological evaluation of extracellular matrix components.

neocartilage [3] = experiment: as above; conditions: day 28 tissue stimulated for additional 36 days
Fetal chondrocytes = experiment: Effect of heparin on neocartilage formation; conditions: day 10–28
Protocol: Day 10 neocartilage was treated with increasing amounts of heparin for 18 days. Fresh media, containing heparin and ascorbate were added every 72–96 hrs. Media were collected and frozen for future analysis. Cultures were harvested on day 28 and the S-GAG content (FIG. 18A) and OH-proline content (FIG. 18B) of the resultant neocartilage assayed as described hereinbelow.
Fetal chondrocytes were grown as described above and subdivided into three groups on day 10 to investigate the effect of heparin on neocartilage formation. In low doses, heparin is known to increase the activity of certain growth factors, for example the fibroblast growth factor (FGF) family of related proteins, by acting as a co-factor, whereas greater amounts of heparin will strip away certain growth factors from the extracellular matrix and thereby impede tissue repair.
Sterile heparin was added to the media at a final concentration of […] for the duration of the culture period (i.e. from day 10–28). Media were exchanged every 3–4 days and recovered for electrophoretic analysis of secreted proteins. Cell layers were removed and the S-GAG (FIG. 18A), hydroxy proline (FIG. 18B), and DNA content quantitated as before (FIG. 18).

[4] = cytokine 1.0 (ng/ml), chronic treatment
[5] = cytokine 5.0 (ng/ml), chronic treatment

## CCCCCCCCCCCCCC(=O)O[C@@H]1[C@@H](C)[C@@]2(O)[C@@H](C=C(CO)C[C@]3(O)C(=O)C(C)=C[C@@H]23)[C@@H]2C(C)(C)[C@]12OC(C)=O [Phorbol ester]
[1]
  metalloproteinase synthesis induced: specifically induced synthesis of gelatinase B

## TNF-α
Neocartilage [2]; [4]
  OH-proline content of tissue: 403 pmol
Neocartilage [2]; [5]
  OH-proline content of tissue: 355 pmol
Neocartilage [3]
  gross appearance of neocartilage on removal from plastic surface: retracted considerably upon removal from the plastic surface

## IL-1β: cytokine used to stimulate resorption of neocartilage
Neocartilage [2]; cytokine 0.1 ng/ml, chronic treatment
  OH-proline content of tissue: 572 ± 105 pmol
Neocartilage [2]; [4]
  OH-proline content of tissue: 541 ± 16 pmol
Neocartilage [2]; [5]
  OH-proline content of tissue: 501 ± 48 pmol
Neocartilage [2]; cytokine + 50 mU plasminogen, cytokine concentration not printed on the line
  OH-proline content of tissue: 460 ± 16 pmol
Neocartilage [2]; day 60 neocartilage, 1 ng/ml for 30 days
  thickness of the synthesized matrix: significant reduction in the thickness of the synthesized matrix
Neocartilage [2]; day 60 neocartilage, 1 ng/ml for 30 days, versus untreated controls
  safranin-O and pentachrome staining intensity: Staining intensity is markedly reduced
Neocartilage [3]
  gross appearance of neocartilage on removal from plastic surface: retracted considerably upon removal from the plastic surface

## heparin
Fetal chondrocytes; 2 μg/ml
  defect in matrix deposition: much less severe
Fetal chondrocytes; highest concentration of heparin (20 μg)
  inhibition in OH-proline (matrix deposition): 33%

B1: plasminogen: added to enhance the activation of latent MMPs via the plasminogen activator/plasmin cascade (protein, UniProt P00747 20-810, looked up)
Plasminogen: EPLDDYVNTQGASLFSVTKKQLGAGSIEECAAKCEEDEEFTCRAFQYHSKEQQCVIMAENRKSSIIIRMRDVVLFEKKVYLSECKTGNGKNYRGTMSKTKNGITCQKWSSTSPHRPRFSPATHPSEGLEENYCRNPDNDPQGPWCYTTDPEKRYDYCDILECEEECMHCSGENYDGKISKTMSGLECQAWDSQSPHAHGYIPSKFPNKNLKKNYCRNPDRELRPWCFTTDPNKRWELCDIPRCTTPPPSSGPTYQCLKGTGENYRGNVAVTVSGHTCQHWSAQTPHTHNRTPENFPCKNLDENYCRNPDGKRAPWCHTTNSQVRWEYCKIPSCDSSPVSTEQLAPTAPPELTPVVQDCYHGDGQSYRGTSSTTTTGKKCQSWSSMTPHRHQKTPENYPNAGLTMNYCRNPDADKGPWCFTTDPSVRWEYCNLKKCSGTEASVVAPPPVVLLPDVETPSEEDCMFGNGKGYRGKRATTVTGTPCQDWAAQEPHRHSIFTPETNPRAGLEKNYCRNPDGDVGGPWCYTTNPRKLYDYCDVPQCAAPSFDCGKPQVEPKKCPGRVVGGCVAHPHSWPWQVSLRTRFGMHFCGGTLISPEWVLTAAHCLEKSPRPSSYKVILGAHQEVNLEPHVQEIEVSRLFLEPTRKDIALLKLSSPAVITDKVIPACLPSPNYVVADRTECFITGWGETQGTFGAGLLKEAQLPVIENKVCNRYEFLNGRVQSTELCAGHLAGGTDSCQGDSGGPLVCFEKDKYILQGVTSWGLGCARPNKPGVYVRVSRFVTWIEGVMRNN
Neocartilage [2]; 50 mU plasminogen alone, no cytokine, chronic treatment
  OH-proline content of tissue: 1648 ± 72 pmol
